The structures appear in SMILES notation. Values after ≈ are worked out from the molar mass of the structure shown.

Test [1] deals with Salmonella Choleraesuis. The note with it: mice, 25 mg./kg., multiple dosing, percentage of animals which survive.
Protocol: The test compound is administered using a multiple dosing regimen at a dosage of 25 mg./kg., and using either the oral (PO) or the subcutaneous (SC) route. The inoculum of bacteria varies from one to about ten times the amount needed to kill 100% of the mice, under conditions of the test. At the end of the test, the activity of a compound is assessed by counting the number of survivors among the treated animals and expressing the activity of a compound as the percentage of animals which survive.
The subject of test [2] is Salmonella Choleraesuis. The test is described as follows: in vitro antibacterial activity (MIC), two-fold serial dilution in Brain-Heart Infusion broth. The note with it: Salmonella enterica, read-out: MIC Sal. Choleraesuis.
Protocol: (§1) The broth is inoculated with bacteria, and with the quinoxaline 1,4-dioxide or 1,3 -dihydrofuro[3,4-b]quinoxaline 4,9-dioxide, and then it is incubated overnight at 37 ° C., under anaerobic conditions. On the next day, the test is read visually. The minimum inhibitory concentration (MIC) of test compound is the lowest concentration which prevents turbidity, i.e. which prevents growth of the microorganism.
For the next test, the system named is Escherichia coli. The description is as above. The conditions noted are these: read-out: MIC Esch coli.
The test system of a further test is Streptococcus pyogenes. Described as above. The conditions noted are these: read-out: MIC Strep pyogenes.

Protocol for Escherichia coli: as §1
Protocol for Streptococcus pyogenes: as §1

On to `COC1(c2ccccc2)OCc2c1[n+]([O-])c1ccccc1[n+]2[O-]` (stereo not shown) [1-Methoxy-1-phenyl-1,3-dihydrofuro[3,4-b]quinoxaline 4,9-Dioxide], for which the “Percentage protection vs. Sal. Choleraesuis, PO” value in the test on Salmonella Choleraesuis [1] is given as 30%. The “Percentage protection vs. Sal. Choleraesuis, SC” value in the test on Salmonella Choleraesuis [1] came out at 30%. The minimum inhibitory concentration (MIC) in the test with Salmonella Choleraesuis [2] is 100 µg/mL (≈ 322 µM); with Escherichia coli, 25 µg/mL (≈ 80.6 µM); in the test with Streptococcus pyogenes it was 25 µg/mL (≈ 80.6 µM).

Take `CC(=O)OCc1c(C(=O)c2ccccc2)[n+]([O-])c2ccccc2[n+]1[O-]` [2-Benzoyl-3-acetoxymethylquinoxaline 1,4-Dioxide]: the “Percentage protection vs. Sal. Choleraesuis, PO” value with Salmonella Choleraesuis [1] turned out to be 50%. Further, the “Percentage protection vs. Sal. Choleraesuis, SC” value in the test with Salmonella Choleraesuis [1] turned out to be 10%. Also, the MIC was found to be 50 µg/mL (≈ 148 µM) with Salmonella Choleraesuis [2], 12.5 µg/mL (≈ 36.9 µM) in the test on Escherichia coli and 12.5 µg/mL (≈ 36.9 µM) in the test with Streptococcus pyogenes.

As for `CC(=O)SCc1c(C(=O)c2ccccc2)[n+]([O-])c2ccccc2[n+]1[O-]` [2-Benzoyl-3-acetylthiomethylquinoxaline 1,4-Dioxide], in the test on Salmonella Choleraesuis [1], the “Percentage protection vs. Sal. Choleraesuis, PO” value came to 30%. For the same molecule, the “Percentage protection vs. Sal. Choleraesuis, SC” value with Salmonella Choleraesuis [1] is reported as 20%. Also, the MIC with Salmonella Choleraesuis [2], in the test with Escherichia coli and in the test on Streptococcus pyogenes was above 200 µg/mL in each case.

Consider `O=C(c1ccccc1)c1c(CO)[n+]([O-])c2ccccc2[n+]1[O-]` [2-Benzoyl-3-hydroxymethylquinoxaline 1,4-Dioxide], for which the “Percentage protection vs. Sal. Choleraesuis, PO” value in the test with Salmonella Choleraesuis [1] came to 80%. For the same molecule, the “Percentage protection vs. Sal. Choleraesuis, SC” value in the test with Salmonella Choleraesuis [1] is listed as 60%. The values for the MIC with Salmonella Choleraesuis [2], in the test with Escherichia coli and with Streptococcus pyogenes were 6.25 µg/mL (≈ 21.1 µM), 1.56 µg/mL (≈ 5.27 µM) and 0.78 µg/mL (≈ 2.63 µM), respectively.

On to `CS(=O)(=O)Cc1c(C(=O)c2ccccc2)[n+]([O-])c2ccccc2[n+]1[O-]` [2-Benzoyl-3-methylsulfonylmethylquinoxaline 1,4-Dioxide], for which the “Percentage protection vs. Sal. Choleraesuis, PO” value with Salmonella Choleraesuis [1] is reported as 60%. Besides, the “Percentage protection vs. Sal. Choleraesuis, SC” value in the test with Salmonella Choleraesuis [1] stood at 30%. Also, the MIC was found to be 25 µg/mL (≈ 69.8 µM) in the test on Salmonella Choleraesuis [2], 25 µg/mL (≈ 69.8 µM) with Escherichia coli and 12.5 µg/mL (≈ 34.9 µM) in the test with Streptococcus pyogenes.

As a reminder, the MIC is the lowest concentration that inhibits growth of the organism.

(Values after US4012385A, “Antibacterial quinoxaline 1,4-dioxides” (Pfizer Inc., priority 1975, dated 1977).)
